Assay results from patent publication US9018213B2, “Alicyclic[c] benzopyrone derivatives and uses thereof” (Huazhong University of Science & Technology, priority 2011, dated 2015).
Like-named read-outs stand apart in the source and are kept apart here.

Experiments:
[1] = biological target: 5HT1A receptor (Rattus norvegicus (Rat), UniProt P19327); test: 5HT1A receptor binding assay (3H-8-OH-DPAT); settings: test compound final concentration 10^-5 M
Experimental: Preparation of 5HT1A Membrane
Incubation at 37° C. was conducted for 10 min, the weight of the tubes were adjusted using a balance after incubation. […] Centrifugation was conducted and repeated 3 times.
Materials for the Receptor Binding Assay

[2] = biological target: 5HT2A receptor (Rattus norvegicus (Rat), UniProt P14842); test: 5HT2A receptor binding assay ([3H]-Ketanserin); settings: read-out: 5HT2A inhibition %
[3] = biological target: D2 receptor (Rattus norvegicus (Rat), UniProt P61169); test: D2 receptor inhibition binding assay (3H-Spiperone); settings: read-out: D2 inhibition %
Experimental: Rats were sacrificed by cervical dislocation on ice. Cerebral cortex was rapidly taken, and 2 cerebral cortexes were combined into a centrifuge tube, to which 3 ml of buffer (0.05 M Tris-HCl buffer, containing NaCl 120 mM, KCl 5 mM, MgCl2 1 mM, CaCl2 1 mM) was added, homogenization was conducted for 3-4 s at level 4 for four times, and then 5 ml of buffer was then added. The weight of the homogenized tubes were adjusted using a balance, and centrifugation was conducted at 12000 r, 4° C. for 20 min. The supernatant was discarded, and 3 ml of B solution was added. Vortex mixer was used for blending, and then 5 ml of B solution was added. Centrifugation was conducted and repeated 3 times. After the centrifugations, the supernatant was discarded, and the pellets were stored at −80° C. for future use.
Beckman LS-6500 Multi-function Liquid Scintillation Counter was used.
(1) The prepared membrane was first applied with appropriate amount of homogenized liquid, and homogenizer was used for evenly dispersing. 15 tubes were mixed into a 100 ml container, and appropriate amount of homogenized liquid was added to give 50 ml of membrane suspension, which was reserved for future use.
(2) 100 μL of membrane preparation and 100 μL of buffer were added into each reaction tube.
(3) 100 μL of homogenized liquid was added into the total binding tube (TB), 100 μL of Butaclamol (final concentration 10^−5 M) was added into the non-specific binding tube (NB), and 100 μL of the test compound (final concentration 10^−5 M) was added into the specific binding tube (SB) for each compound.
(5) Each of the reaction tubes was incubated at 37° C. for 20 min. After the reaction was completed, the bound ligands were rapidly filtered under reduced pressure, and the ice-chilled assay buffer was used for adequate washing. The filter was taken out and put into a 3 ml scintillation vial, and 2 ml of toluene scintillation solution was added and blended.
(6) The scintillation vials were put into Liquid Scintillation Counter for counting. Inhibitory rate (I %)=(Total binding tube cpm−compound cpm)/(Total binding tube cpm−non-specific binding tube cpm)×100%
Each assay for the compounds was conducted in duplicate.

[4] = system: mice of Kunming breed; test: MK-801 induced high activity; format: in vivo; settings: po, mice; for ED50: Mus musculus
Experimental: Healthy mice of Kunming breed (with half male and half female, (20±2) g) were provided by Qinglongshan Animal Cultivation Center, Nanjing.
Ascorbic acid was provided by Sinopharm Chemical Reagent Co. Ltd.
Tween 80, with the concentration of 10%.
Subsequently, the spontaneous activities of the mice of each group in 90 min were measured.

[5] = system: KM mice; test: Apomorphine induced clambering assay of mice; format: in vivo; settings: for ED50: Mus musculus, read-out: apomorphine induced clambering ED50; for Scoring (value), apomorphine induced clambering: x ± s, n = 10
Experimental: Apomorphine Induced Clambering Assay of Mice
Healthy KM mice (male, with body weight of 18-22 g) were provided by Qinglongshan Animal Cultivation Center, Nanjing.
Apomorphine provided by Sigma Company was dissolved in 0.9% NaCl (containing 0.1% vitamin C) before use, and was freshly formulated before use.
Vitamin C, F20061113, was provided by Sinopharm Chemical Reagent Co. Ltd.
Sodium chloride injection, H32026305, was provided by Xuzhou No. 5 Pharmaceutical Factory Co. Ltd.
Instruments: self-made clambering cage, chronograph.
Procedures: apomorphine induced clambering assay of mice
After 5 min of adaptation, the behaviors of the mice at 10-11, 20-21, and 30-31 min after the injection of apomorphine were observed and scored. Scoring criteria: 4 paws on the floor was scored as 0; 2 forepaws on the cage was scored as 1; and 4 paws on the cage was scored as 2.

[6] = in vivo; settings: both, Kunming (KM), mouse, po
Experimental: Healthy mice of Kunming breed (with half male and half female, (22±2) g) were provided by Qinglongshan Animal Cultivation Center, Nanjing.
The durations for the mice to maintain the posture with the two forepaws on the bars were recorded, and 30 s of spasticity without moving was considered as the positive response. In the case the forepaws of the mice were not put down persistently, the observation was terminated at 60 s. The numbers of animals with positive response in each of the compound dosage groups were counted.

[7] = in vivo; settings: both sexes, mouse, in vivo, po
Experimental: Limit Test of Sequential Assay
KM mice (half male and half female) were randomly divided into several groups (with 2-5 mice in each group), which were respectively the 2000 mg/kg groups for each compound, and the solvent group. 0.2 ml/10 g were administered intragastrically. The death of the animals in 3 days were observed. (In the case 3 or more animals survived in 3 days without notable abnormity in their life states, the observation was continued until the assay was completed in 7 days. In the case 3 or more animals died in 3 days, the median lethal dose method was used to determine the LD50).
Pre-Assay for the Median Lethal Dose Method
0.2 ml/10 g were administered intragastrically, and the death of the animals in 1-3 days were observed.

Chain of 5HT1A receptor (P19327 whole entry): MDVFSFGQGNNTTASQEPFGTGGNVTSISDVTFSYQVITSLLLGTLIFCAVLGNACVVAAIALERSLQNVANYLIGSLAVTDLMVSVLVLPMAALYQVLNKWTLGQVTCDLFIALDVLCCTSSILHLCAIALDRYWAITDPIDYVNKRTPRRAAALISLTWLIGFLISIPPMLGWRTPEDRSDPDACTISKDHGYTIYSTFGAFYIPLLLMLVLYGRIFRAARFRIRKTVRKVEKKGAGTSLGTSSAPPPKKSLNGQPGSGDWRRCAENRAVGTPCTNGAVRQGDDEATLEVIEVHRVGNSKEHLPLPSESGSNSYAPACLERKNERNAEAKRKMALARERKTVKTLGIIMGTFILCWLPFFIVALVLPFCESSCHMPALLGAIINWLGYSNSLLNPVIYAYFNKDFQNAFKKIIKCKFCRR
Chain of D2 receptor (P61169 whole entry): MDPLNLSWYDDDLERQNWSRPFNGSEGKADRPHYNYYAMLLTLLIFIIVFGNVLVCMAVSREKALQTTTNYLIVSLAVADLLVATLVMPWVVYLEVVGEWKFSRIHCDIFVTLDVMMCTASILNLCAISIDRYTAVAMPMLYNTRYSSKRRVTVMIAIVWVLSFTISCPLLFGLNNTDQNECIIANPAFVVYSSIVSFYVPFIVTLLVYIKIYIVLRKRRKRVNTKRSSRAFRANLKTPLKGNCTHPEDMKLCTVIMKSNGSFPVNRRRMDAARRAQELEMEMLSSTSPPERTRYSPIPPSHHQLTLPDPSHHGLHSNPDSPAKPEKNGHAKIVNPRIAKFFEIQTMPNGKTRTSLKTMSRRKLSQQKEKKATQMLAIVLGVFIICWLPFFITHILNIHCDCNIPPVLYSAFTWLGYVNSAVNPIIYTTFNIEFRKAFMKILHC
Chain of 5HT2A receptor (P14842 whole entry): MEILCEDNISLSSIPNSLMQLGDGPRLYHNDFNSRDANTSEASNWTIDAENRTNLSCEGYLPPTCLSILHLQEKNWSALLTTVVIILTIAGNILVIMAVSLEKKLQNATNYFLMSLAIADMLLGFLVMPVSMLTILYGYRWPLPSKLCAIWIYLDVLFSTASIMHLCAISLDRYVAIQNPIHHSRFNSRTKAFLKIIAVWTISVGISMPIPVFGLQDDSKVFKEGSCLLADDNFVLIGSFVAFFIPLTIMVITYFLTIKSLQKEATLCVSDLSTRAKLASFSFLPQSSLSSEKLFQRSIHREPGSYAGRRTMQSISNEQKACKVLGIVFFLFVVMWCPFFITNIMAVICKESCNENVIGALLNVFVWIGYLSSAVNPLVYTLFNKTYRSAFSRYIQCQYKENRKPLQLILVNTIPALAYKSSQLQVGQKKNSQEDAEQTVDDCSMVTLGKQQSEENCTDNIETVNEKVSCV

Row | SMILES | inhibition at 10 µM [1] [%] | inhibition at 10 µM [2] [%] | inhibition at 10 µM [3] [%] | other results
1 | Cc1cccc(N2CCN(CCCOc3ccc4c5c(c(=O)oc4c3)CCC5)CC2)c1C [Compound 1, 7-{3-[4-(2,3-dimethylphenyl)piperazin-1-yl]-propoxy}-2,3-dihydro-1H-cyclopenteno[c]benzopyran-4-one] | 103 | 82.9 | 3.3 | 
2 | O=c1oc2cc(OCCCN3CCN(c4cccc(Cl)c4Cl)CC3)ccc2c2c1CCC2 [Compound 2, 7-{3-[4-(2,3-dichlorophenyl)piperazin-1-yl]-propoxy}-2,3-dihydro-1H-cyclopenteno[c]benzopyran-4-one] | 65.8 | 14.3 | 11.5 | 
3 | O=c1oc2cc(OCCCN3CCN(c4cccc(C(F)(F)F)c4)CC3)ccc2c2c1CCC2 [Compound 3, 7-{3-[4-(3-trifluoromethylphenyl)piperazin-1-yl]-propoxy}-2,3-dihydro-1H-cyclopenteno[c]benzopyran-4-one] | 104 | 62.2 | 17.2 | 
4 | COc1ccccc1N1CCN(CCCOc2ccc3c4c(c(=O)oc3c2)CCC4)CC1 [Compound 4, 7-{3-[4-(2-methoxyphenyl)piperazin-1-yl]-propoxy}-2,3-dihydro-1H-cyclopenteno[c]benzopyran-4-one] | 116 | 112 | 50.2 | 
5 | COc1ccccc1N1CCN(CCCOc2ccc3c4c(c(=O)oc3c2C)CCC4)CC1 [Compound 6, 7-{3-[4-(2-methoxyphenyl)piperazin-1-yl]-propoxy}-6-methyl-2,3-dihydro-1H-cyclopenteno[c]benzopyran-4-one] | 95.5 | 75.4 | 4.7 | 
6 | COc1ccc(N2CCN(CCCCOc3ccc4c5c(c(=O)oc4c3)CCC5)CC2)cc1 [Compound 8, 7-{4-[4-(4-methoxyphenyl)piperazin-1-yl]-butoxy}-2,3-dihydro-1H-cyclopenteno[c]benzopyran-4-one] | 62.8 | 23.4 | 26.4 | 
7 | O=c1oc2cc(OCCCCN3CCN(c4ccc(F)cc4)CC3)ccc2c2c1CCC2 [Compound 9, 7-{4-[4-(4-fluorophenyl)piperazin-1-yl]-butoxy}-2,3-dihydro-1H-cyclopenteno[c]benzopyran-4-one] | 104 | 119 | 15.2 | 
8 | O=c1oc2cc(OCCCCN3CCC(c4noc5cc(F)ccc45)CC3)ccc2c2c1CCC2 [Compound 10, 7-{4-[4-(3-(6-fluoro-benzisoxazole)-1-piperidyl)-butoxy]}-2,3-dihydro-1H-cyclopenteno[c]benzopyran-4-one] | 42.5 | 68.4 | 5.7 | 
9 | COc1ccccc1N1CCN(CCCCOc2ccc3c4c(c(=O)oc3c2C)CCC4)CC1 [Compound 11, 7-{4-[4-(2-methoxyphenyl)piperazin-1-yl]-butoxy}-6-methyl-2,3-dihydro-1H-cyclopenteno[c]benzopyran-4-one] | 106 | 105 | 59.2 | 
10 | Cc1c(OCCCCN2CCN(c3nsc4ccccc34)CC2)ccc2c3c(c(=O)oc12)CCC3 [Compound 12, 7-{4-[4-(3-(1,2-benzisothiazole)-1-piperazinyl)-butoxy]}-6-methyl-2,3-dihydro-1H-cyclopenteno[c]benzopyran-4-one] | 104 | 107 | 61.2 | 
11 | COc1ccccc1N1CCN(CCCCOc2ccc3c4c(c(=O)oc3c2Cl)CCC4)CC1 [Compound 13, 7-{4-[4-(2-methoxyphenyl)piperazin-1-yl]-butoxy}-6-chloro-2,3-dihydro-1H-cyclopenteno[c]benzopyran-4-one] | 106 | 105 | 59.2 | 
12 | O=c1oc2cc(OCCCCN3CCC(c4noc5cc(F)ccc45)CC3)c(Cl)cc2c2c1CCC2 [Compound 16, 7-{4-[4-(3-(6-fluoro-benzisoxazole)-1-piperidyl)-butoxy]}-8-chloro-2,3-dihydro-1H-cyclopenteno[c]benzopyran-4-one] | 55.3 | 88.4 | 51.5 | 
13 | COc1ccccc1N1CCN(CCCCOc2cc3oc(=O)c4c(c3cc2Cl)CCC4)CC1 [Compound 17, 7-{4-[4-(2-methoxyphenyl)piperazin-1-yl-butoxy]}-8-chloro-2,3-dihydro-1H-cyclopenteno[c]benzopyran-4-one] | 115 | 104 | 15.4 | 
14 | O=c1oc2cc(OCCCCN3CCC(c4noc5cc(F)ccc45)CC3)ccc2c2c1CCCC2 [Compound 18, 3-{4-[4-(3-(6-fluoro-benzisoxazole)-1-piperidyl)-butoxy]}-7,8,9,10-tetrahydrobenzo[c]benzopyran-6-one] | 46.6 | 114 | 80.6 | 
15 | COc1ccccc1N1CCN(CCCCOc2ccc3c4c(c(=O)oc3c2C)CCCC4)CC1 [Compound 20, 3-{4-[4-(2-methoxyphenyl)piperazin-1-yl]-butoxy}-4-methyl-7,8,9,10-tetrahydrobenzo[c]benzopyran-6-one] | 100 | 90.7 | 66.4 | 
16 | O=C1CCc2ccc(OCCCCN3CCN(c4cccc(Cl)c4Cl)CC3)cc2N1 [aripiprazole] |  |  |  | ED50 [4]: 0.12 mg/kg; ED50 ([5]; po, mice): 0.66 mg/kg; Scoring (value), apomorphine induced clambering ([5]; dosage 0.3 mg/kg): 4.50 ± 1.51; Scoring (value), apomorphine induced clambering ([5]; dosage 1 mg/kg): 1.5 ± 1.08; Scoring (value), apomorphine induced clambering ([5]; dosage 3 mg/kg): 2.30 ± 1.57; Scoring (value), apomorphine induced clambering ([5]; dosage 10 mg/kg): 0.20 ± 0.42; ED50 [6]: 2.4 mg/kg; LD50 ([7]; KM): 93 mg/kg
17 | Cc1cc2c(s1)Nc1ccccc1N=C2N1CCN(C)CC1 [olanzapine] |  |  |  | ED50 ([5]; po): 0.11 mg/kg; Scoring (value), apomorphine induced clambering ([5]; dosage 0.1 mg/kg): 5.00 ± 1.25; Scoring (value), apomorphine induced clambering ([5]; dosage 0.3 mg/kg): 2.10 ± 1.10; Scoring (value), apomorphine induced clambering ([5]; dosage 1 mg/kg): 1.30 ± 1.25; Scoring (value), apomorphine induced clambering ([5]; dosage 3 mg/kg): 0.30 ± 0.48
18 | OCCOCCN1CCN(C2=Nc3ccccc3Sc3ccccc32)CC1 [quetiapine] |  |  |  | MK-801 induced high activity ED50 [4]: 10.1 mg/kg; Scoring (value), apomorphine induced clambering ([5]; dosage 3 mg/kg): 4.00 ± 2.05; Scoring (value), apomorphine induced clambering ([5]; dosage 10 mg/kg): 3.00 ± 1.63; Scoring (value), apomorphine induced clambering ([5]; dosage 30 mg/kg): 4.00 ± 2.31; Scoring (value), apomorphine induced clambering ([5]; dosage 100 mg/kg): 2.60 ± 2.55; Scoring (value), apomorphine induced clambering ([5]; dosage 300 mg/kg): 0.50 ± 1.07; apomorphine induced clambering ED50 ([5]; po, mice): 2.02 mg/kg; ED50 [6]: 800 mg/kg; LD50 ([7]; KM): 800 mg/kg
19 | Cc1nc2n(c(=O)c1CCN1CCC(c3noc4cc(F)ccc34)CC1)CCCC2 [risperidone] |  |  |  | ED50 ([5]; po): 0.015 mg/kg; effect on apomorphine induced clambering symptoms (in words) ([5]; compared to the model group): effectively improve; Scoring (value), apomorphine induced clambering ([5]; dosage 0.01 mg/kg): 5.20 ± 1.87; Scoring (value), apomorphine induced clambering ([5]; dosage 0.03 mg/kg): 2.70 ± 1.77; Scoring (value), apomorphine induced clambering ([5]; dosage 0.1 mg/kg): 1.80 ± 1.32; Scoring (value), apomorphine induced clambering ([5]; dosage 0.3 mg/kg): 0.20 ± 0.63
20 | O=C1Cc2cc(CCN3CCN(c4nsc5ccccc45)CC3)c(Cl)cc2N1 [ziprasidone] |  |  |  | ED50 [4]: 0.56 mg/kg; ED50 ([5]; po, mice): 0.37 mg/kg; Scoring (value), apomorphine induced clambering ([5]; dosage 0.3 mg/kg): 4.40 ± 2.01; Scoring (value), apomorphine induced clambering ([5]; dosage 1 mg/kg): 3.80 ± 1.40; Scoring (value), apomorphine induced clambering ([5]; dosage 3 mg/kg): 0.70 ± 1.16; Scoring (value), apomorphine induced clambering ([5]; dosage 10 mg/kg): 0.40 ± 0.84; ED50 [6]: 30.4 mg/kg; LD50 ([7]; mice, single intragastric administration, read-out: LD50): > 2000 mg/kg
